Measured values published in US20100204090A1, “USE OF A PEPTIDE AS A THERAPEUTIC AGENT” (priority 2007, published 2010).
Bridge positions count the residues as written; N and C are the ends. Peptide text beside a SMILES is read from it.

Columns and labels:
[1] = system: MRC-5 cells; settings: human, 6 days
[2] = system: Human Peripheral Blood Mononuclear Cells (PBMC), T cell proliferation; experiment: T cell proliferation assay (PHA-stimulated PBMC, 3H-thymidine); format: cell-based; settings: peptide 10 micrograms per ml, 3 days plus 12 hours 3H-thymidine
[3] = system: TNF alpha production in PBMC-derived macrophages; experiment: TNF alpha production assay (LPS-stimulated macrophages, ELISA); format: cell-based, human; settings: peptide 10 micrograms per ml, lipopolysaccharide 200 ng/ml, overnight
Source text: Not stimulated macrophages served as negative background control.

[4] = system: Primary Human endothelial cells (HUVEC); experiment: Endothelial cell migration assay; format: cell-based; settings: peptide 10 micrograms per ml, 22 hours
[5] = Cell viability (dye uptake) in the HBV assay; format: cell-based; settings: human, HepG2-2.2.15 cells (stable line containing HBV ayw genome), peptide 10 micrograms per ml, % cell control
[6] = system: A549 cells; experiment: Propidium iodide cell cycle assay; format: cell-based, human; settings: peptide 10 micrograms per ml, 24 hours, FACS
[7] = system: HCMV strain AD169; experiment: HCMV plaque reduction assay in MRC-5 cells; format: cell-based, human cytomegalovirus; settings: HCMV AD169 in MRC-5 cells; peptide 10 micrograms per ml; 7-10 days
Source text: Ganciclovir was used as positive control.

[8] = system: HUVEC; experiment: Endothelial tube formation assay; format: cell-based, human; settings: peptide 10 micrograms per ml, 20 hours
Source text: Positive control was vehicle only.

[9] = Cytotoxicity testing in MRC-5 cells (CellTiter 96); settings: human, MRC-5 cells (embryonal lung fibroblasts)
[10] = human, cells plus peptide only
[11] = system: Human Peripheral Blood Mononuclear Cells (PBMC), B cell proliferation; experiment: B cell proliferation assay (SAC plus IL-2 stimulated PBMC, 3H-thymidine); format: cell-based; settings: peptide 10 micrograms per ml, 3 days plus 12 hours 3H-thymidine
[12] = system: hepatitis B virus (HBV) ayw strain; experiment: HBV replication assay in HepG2-2.2.15 cells (secreted HBV DNA, TaqMan PCR); format: cell-based; settings: peptide 10 micrograms per ml; six days; HBV DNA in supernatant, % virus control
[13] = system: spleen cells of Ovalbumin-immunized Balb/c mice; experiment: Th1/Th2 cytokine profiling assay (Ovalbumin-restimulated spleen cells, CBA kit); format: cell-based, mouse; settings: peptide 10 micrograms per ml; Ovalbumin 10 micrograms/ml restimulation; 72 hours
Source text: The Balb/c mice (originated in 1923, it is a popular strain and is used in many different research disciplines. Also classified as an inbred from the production of 20 or more successive brother-sister matings, the Balb/c mouse is albino and small in size) were immunized on Days 1, 15, and 29 with Ovalbumin (Ovalbumin is the main protein found in egg white, commonly used to stimulate an immunological reaction in test animals) in PBS (5 micrograms/injection). On day 50, spleens of the mice were harvested (3 weeks after last boost with Ovalbumin). […] Thereafter, additional Ovalbumin was added to the cells at 10 micrograms/ml for in vitro restimulation of the cells. 72 hours later, cell supernatants were harvested and assayed using the Becton Dickinson Mouse Th1/Th2 Cytokine CBA Kit. This kit can be used to measure Interleukin-2 (IL-2), Interleukin-4 (IL-4), Interleukin-5 (IL-5), Interferon-γ (IFN-γ), and Tumor Necrosis Factor-α (TNF-α) protein levels in a single sample.

[14] = system: RAW 264.7 cells; experiment: Phagocytosis assay (Fluorescein-labeled Escherichia coli, flow cytometry); format: cell-based, mouse; settings: peptide 10 micrograms per ml, 30 min preincubation, 60 min ingestion
[15] = system: HepG2-2.2.15 cells; experiment: Cell viability (dye uptake) in the HBV assay; format: cell-based; settings: peptide 10 micrograms per ml, % cell control

Nc1nc(O)c2ncn(COC(CO)CO)c2n1 [Ganciclovir]
% Cell viability [1]: 100%

CC[C@H](C)[C@@H]1NC(=O)CNC(=O)[C@H](CCCNC(=N)N)NC(=O)CNC(=O)[C@@H]2CSSC[C@H](NC1=O)C(=O)N[C@@H](CCCNC(=N)N)C(=O)N[C@H]1CSSC[C@H](NC(=O)[C@H](CCCNC(=N)N)NC(=O)[C@@H]3CSSC[C@H](NC(=O)[C@H]([C@@H](C)CC)NC1=O)C(=O)NCC(=O)N[C@@H](CCCNC(=N)N)C(=O)NCC(=O)N[C@@H]([C@@H](C)CC)C(=O)N3)C(=O)N[C@@H]([C@@H](C)CC)C(=O)N2 [Retrocyclin-1] (cyclo(GICRCICGRGICRCICGR); disulfide 3-16, 5-14, 7-12 (inferred); ring closure inferred)
% of PHA induced control [2]: 81.6%
% of LPS induction [3]: 115.1%
% inhibition of migration [4]: 8%
viability at 144 h, 10 micrograms per ml [5]: 78.5%
Cell cycle analysis G0/G1 [6]: 55.3
Cell cycle analysis G2/M [6]: 12.1
Cell cycle analysis S [6]: 32.6
% plaque reduction [7]: 25.8%
% inhibition of tube formation [8]: 100%
viability at 144 h [9]: 100%
viability at 10 micrograms per ml [10]: 89.3%
% of SAC/IL2 induced control [11]: 85.0%
% inhibition of HBV replication in HEP G2 cells [12]: 72.2%
IFNγ spleen cells; TH1 response (% of control) [13]: 137.6 % of control
IL-2 spleen cells (% of control) [13]: 157.7 % of control
IL-4 spleen cells; TH2 response (% of control) [13]: 67.1 % of control
IL-5 spleen cells; TH2 response (% of control) [13]: 80.7 % of control
TNF-a spleen cells; TH1 response (% of control) [13]: 152.5 % of control
% of control phagocytosis [14]: 79.4%

Nc1ccn([C@@H]2CS[C@H](CO)O2)c(=O)n1 [Compound 3TC, Lamivudine, reference compound]
% Cell viability [15]: 95.8%
